Measured values from patent US9353150B2, “Substituted pyrazino[1′,2′:1 ,5]pyrrolo[2,3-b]-indole-1,4-diones for cancer treatment” (Massachusetts Institute of Technology, priority 2012, dated 2016).
Like-named read-outs stand apart in the source and are kept apart here.

Tests used:
H460 (lung carcinoma) = test: 72-hour IC50 determination for adherent cells using sulforhodamine B (SRB); type: cell-based, human; conditions: error is standard deviation of the mean, n ≧ 3, read-out: H460, 72-hour IC50 (Table E1-2)
Method: (§1) Certain provided compounds were tested in culture against a panel of three supplementary human cancer cell lines representing three additional tumor histologies (H460, lung carcinoma; 786-O, renal carcinoma; MCF-7, breast carcinoma). As shown in Table E1-2, the ETPs retain their potency across the cell lines. In some embodiments, a provided compound is active in all cell lines. In some embodiments, a provide compound can be used to selectively target certain cells and/or cancers. […] Without the intention to be limited, Applicant notes that certain cell lines could be more sensitive to provided compounds; for example, U-937 and HeLa are slightly more sensitive to the ETPs than the other three cell lines.
(§2) Cells were grown in media supplemented with fetal bovine serum (FBS) and antibiotics ([…]). Specifically, experiments were performed using the following cell lines and media compositions: U-937, HeLa, H460, and 786-O (RPMI-1640+10% FBS), and MCF7 (EMEM+10% FBS). Cells were incubated at 37° C. in a 5% CO2, 95% humidity atmosphere.
(§3) Adherent cells (HeLa, H460, 786-O, and MCF7) were added into 96-well plates (5,000 cells/well for HeLa cell line; 2,000 cells/well for H460, 786-O, and MCF7 cell lines) in 100 μL media and were allowed to adhere for 2-3 hours. Compounds were solubilized in DMSO as 100× stocks, added directly to the cells (100 μL final volume), and tested over a range of concentrations in triplicate (1% DMSO final) on a half-log scale. Concentrations tested ranged from […] to 10 μM, depending on the potency of the compound. DMSO and cell-free wells served as the live and dead control, respectively. After 72 hours of continuous exposure, the plates were evaluated using the SRB colorimetric assay as described previously (Vichai, V.; Kirtikara, K. Nature Prot. 2006, 1, 1112). Briefly, media was removed from the plate, and cells were fixed by the addition of 100 μL cold 10% trichloroacetic acid in water. After incubating at 4° C. for an hour, the plates were washed in water and allowed to dry. Sulforhodamine B was added as a 0.057% solution in 1% acetic acid (100 μL), and the plates were incubated at room temperature for 30 minutes, washed in 1% acetic acid, and allowed to dry. The dye was solubilized by adding 10 mM Tris base solution (pH 10.5, 200 μL) and incubating at room temperature for 30 minutes. Plates were read at λ=510 nm. IC50 values were determined from three or more independent experiments using TableCurve (San Jose, Calif.).

MCF-7 (breast carcinoma) = test: as above; type: cell-based, human; conditions: error is standard deviation of the mean, n ≧ 3, read-out: MCF-7, 72-hour IC50 (Table E1-2)
Method: as §1, §2, §3

786-O (renal carcinoma) = test: as above; type: cell-based, human; conditions: error is standard deviation of the mean, n ≧ 3, read-out: 786-O, 72-hour IC50 (Table E1-2)
Method: as §1, §2, §3

human cancer cell lines = test: Anticancer activity in human cancer cell lines, not tied to one cell line; type: cell-based; conditions: for anticancer activity, in words: human cancer cell lines, 72-hour exposure
Method: (§4) Certain synthesized compounds were screened for their ability to induce death in two human cancer cell lines: U-937 (leukemic monocyte lymphoma) and HeLa (cervical cancer).
as §1, §3
(§5) In a 96-well plate, compounds were pre-added as DMSO stocks in triplicate to achieve a final concentration of 1%. DMSO and cell-free wells served as the live and dead control, respectively. U-937 (5,000 cells/well) cells were distributed in 100 μL media to the compound-containing plate. After 72 hours, cell viability was assessed by adding 20 μL of a PMS/MTS solution (Cory, A. H.; Owen, T. C.; Barltrop, J. A.; Cory, J. G. Cancer Commun. 1991, 3, 207) to each well, allowing the dye to develop at 37° C. until the live control had processed MTS, and reading the absorbance at λ=490 nm. IC50 values were determined from three or more independent experiments using TableCurve (San Jose, Calif.).

[1] = system: U-937 (hystiocytic lymphoma); test: 72-hour IC50 determination for non-adherent cells using MTS; type: cell-based, human
Method: as §4, §2, §5

[2] = system: HeLa (cervical carcinoma); test: 72-hour IC50 determination for adherent cells using sulforhodamine B (SRB); type: cell-based, human
Method: as §4, §2, §3

[3] = Homo sapiens, NCI-H460, 72-hour exposure
[4] = Homo sapiens, MCF7, 72-hour exposure
[5] = Homo sapiens, 786-0, 72-hour exposure
[6] = Homo sapiens, U-937, 72-hour exposure, MTS, error is standard deviation of the mean, n ≧ 3, read-out: U-937, 72-hour IC50 (Table E1-1)
[7] = Homo sapiens, U-937, 72-hour exposure, MTS, error is standard deviation of the mean, n ≧ 3, read-out: U-937, 72-hour IC50 (Table E1-2)
[8] = Homo sapiens, HeLa, 72-hour exposure, SRB, error is standard deviation of the mean, n ≧ 3, read-out: HeLa, 72-hour IC50 (Table E1-1)
[9] = Homo sapiens, HeLa, 72-hour exposure, SRB, error is standard deviation of the mean, n ≧ 3, read-out: HeLa, 72-hour IC50 (Table E1-2)
[10] = Homo sapiens, U-937, 72 h, read-out: U-937, 72-hour IC50 (Table E1-1)
[11] = Homo sapiens, U-937, 72 h, read-out: U-937, 72-hour IC50 (Table E1-2)
[12] = Homo sapiens, HeLa, 72 h, read-out: HeLa, 72-hour IC50 (Table E1-1)
[13] = Homo sapiens, HeLa, 72 h, read-out: HeLa, 72-hour IC50 (Table E1-2)
[14] = 72-hour exposure, MTS, error is standard deviation of the mean, n ≧ 3, read-out: U-937, 72-hour IC50 (Table E1-1)
[15] = 72-hour exposure, MTS, error is standard deviation of the mean, n ≧ 3, read-out: U-937, 72-hour IC50 (Table E1-2)
[16] = 72-hour exposure, SRB, error is standard deviation of the mean, n ≧ 3, read-out: HeLa, 72-hour IC50 (Table E1-1)
[17] = 72-hour exposure, SRB, error is standard deviation of the mean, n ≧ 3, read-out: HeLa, 72-hour IC50 (Table E1-2)

Structure (SMILES) | IC50 (H460 (lung carcinoma); [3]) [nM] | IC50 (MCF-7 (breast carcinoma); [4]) [nM] | IC50 (786-O (renal carcinoma); [5]) [nM] | anticancer activity, in words (human cancer cell lines) | IC50 (H460 (lung carcinoma); 72-hour exposure) [nM] | IC50 (MCF-7 (breast carcinoma); 72-hour exposure) [nM] | IC50 (786-O (renal carcinoma); 72-hour exposure) [nM] | IC50 [1, 14] [nM] | IC50 [1, 15] [nM] | IC50 [2, 16] [nM] | IC50 [2, 17] [nM] | further results
CSS[C@H]1C(=O)N2[C@H]3N(S(=O)(=O)c4ccccc4)c4ccccc4[C@@]3(c3cn(SC)c4ccccc34)C[C@]2(SSC)C(=O)N1C [Compound 45, C3-(Indol-3′-yl) N-(thiomethyl)bis(methyldisulfane)] | 252 ± 37 | 373 ± 75 | 376 ± 120 | competent anticancer agents |  |  |  |  |  |  |  | IC50 [1, 6]: 14.5 ± 9.1 nM; IC50 [1, 7]: 14.5 ± 9.1 nM; IC50 [2, 8]: 13.7 ± 2.3 nM; IC50 [2, 9]: 13.7 ± 2.3 nM
CN1C(=O)[C@@]23C[C@]4(c5c[nH]c6ccccc56)c5ccccc5N[C@@H]4N2C(=O)[C@@H]1SS3 [Compound 10, (+)-12-deoxybionectin A] | 215 ± 100 | 156 ± 18 | 181 ± 26 |  |  |  |  |  |  |  |  | IC50 [1, 10]: 17.4 ± 1.1 nM; IC50 [1, 11]: 17.4 ± 1.1 nM; IC50 [2, 12]: 117 ± 26 nM; IC50 [2, 13]: 117 ± 26 nM
CN1C(=O)[C@@]23C[C@]4(c5cc[nH]c5)c5ccccc5N(S(=O)(=O)c5ccccc5)[C@@H]4N2C(=O)[C@@H]1SS3 [Compound 32, C3-(Pyrrol-3′-yl) epidithiodiketopiperazine] | 31.8 ± 2.5 | 61 ± 11 | 66 ± 23 |  |  |  |  |  |  |  |  | change in activity across cell lines (human cancer cell lines; five cell lines of Table E1-2): 4 fold; IC50 ([1]; Homo sapiens, U-937, 72 h, read-out: IC50 (U-937)): 2.8 to 14.8 nM; IC50 [1, 10]: 14.8 ± 3.1 nM; IC50 [1, 11]: 14.8 ± 3.1 nM; IC50 [2, 12]: 26.8 ± 4.8 nM; IC50 [2, 13]: 26.8 ± 4.8 nM; IC50 ([2]; Homo sapiens, HeLa, 72 h, read-out: IC50 (HeLa)): 22 to 75 nM
CC(=O)OC[C@]12SSS[C@@]3(C[C@]4([C@]56C[C@@]78SSS[C@@](COC(C)=O)(C(=O)N7[C@H]5N(C(=O)C(F)(F)F)c5ccccc56)N(C)C8=O)c5ccccc5N(C(=O)C(F)(F)F)[C@@H]4N3C1=O)C(=O)N2C [Compound 17] |  |  |  |  | 179 ± 88 | > 333 | 189 ± 26 | 8.9 ± 2.3 | 8.9 ± 2.3 | 28.1 ± 2.2 | 28.1 ± 2.2 | 
CC(=O)OC[C@]12SS[C@@]3(C[C@]4([C@]56C[C@@]78SS[C@@](COC(C)=O)(C(=O)N7[C@H]5Nc5ccccc56)N(C)C8=O)c5ccccc5N[C@@H]4N3C1=O)C(=O)N2C [Compound 15] |  |  |  |  | 140 ± 82 | 77 ± 36 | 95 ± 23 | 4.7 ± 1.3 | 4.7 ± 1.3 | 14.1 ± 7.4 | 14.1 ± 7.4 | 
CN1C(=O)[C@@]23C[C@]4([C@]56C[C@@]78SSSS[C@@](CO)(C(=O)N7[C@H]5Nc5ccccc56)N(C)C8=O)c5ccccc5N[C@@H]4N2C(=O)[C@]1(CO)SSSS3 [Compound 6, (+)-12,12′-dideoxychetracin A] | 39.3 ± 41 | 22.5 ± 6 | 16 ± 2.4 | active across the board |  |  |  |  |  |  |  | IC50 [1, 6]: 1.3 ± 0.5 nM; IC50 [1, 7]: 1.3 ± 0.5 nM; IC50 ([1]; Homo sapiens, U-937, 72-hour exposure, read-out: IC50 (U-937)): 0.75 to 1.3 nM; IC50 [2, 8]: 5.6 ± 1 nM; IC50 [2, 9]: 5.6 ± 1 nM; IC50 ([2]; Homo sapiens, HeLa, 72-hour exposure, read-out: IC50 (HeLa)): 5.6 to 6.9 nM
CN1C(=O)[C@@]23C[C@]4([C@]56C[C@@]78SS[C@@](C)(C(=O)N7[C@H]5Nc5ccccc56)N(C)C8=O)c5ccccc5N[C@@H]4N2C(=O)[C@]1(C)SS3 [Compound 3, (+)-12,12′-dideoxyverticillin A] |  |  |  | active across the board | 42 ± 15 | 28.4 ± 4.5 | 33.5 ± 12.6 | 15.5 ± 2.9 | 15.5 ± 2.9 | 7.2 ± 3 | 7.2 ± 3 | IC50 ([1]; 72-hour exposure, read-out: IC50 (U-937)): 15.5 nM; IC50 ([2]; 72-hour exposure, read-out: IC50 (HeLa)): 7.2 nM
CC(=O)OC[C@]12SSS[C@@]3(C[C@]4([C@]56C[C@@]78SSS[C@@](COC(C)=O)(C(=O)N7[C@H]5Nc5ccccc56)N(C)C8=O)c5ccccc5N[C@@H]4N3C1=O)C(=O)N2C [Compound 16] |  |  |  |  | 187 ± 79 | 263 ± 98 | 204 ± 40 | 9.7 ± 2.1 | 9.7 ± 2.1 | 70 ± 20 | 70 ± 20 | 
CN1C(=O)[C@@]23C[C@]4(Br)c5ccccc5N(S(=O)(=O)c5ccccc5)[C@@H]4N2C(=O)[C@@H]1SS3 [Compound 30, C3-Bromo epidithiodiketopiperazines] |  |  |  | intermediately good activity | 277 ± 44 | 152 ± 42 | 162 ± 35 | 5 ± 1.3 | 5 ± 1.3 | 44.9 ± 1.3 | 44.9 ± 1.3 | 
CN1C(=O)[C@@]23C[C@]4(c5c[nH]c6ccccc56)c5ccccc5N(S(=O)(=O)c5ccccc5)[C@@H]4N2C(=O)[C@]1(C)SS3 [Compound 60, C3-(Indol-3′-yl) epidithiodiketopiperazines] |  |  |  |  | 165 ± 65 | 327 ± 36 | 907 ± 48 | 56 ± 23 | 56 ± 23 | 67 ± 11 | 67 ± 11 | 
